Earlier results as cited in patent publication US20230000960A1, “NEOANTIGEN COMPOSITIONS AND USES THEREOF” (BIONTECH US INC., priority 2019, published 2023).

Test system: ovarian carcinoma patients
Details: poly-ICLC in combination with a NYESO-1 peptide vaccine (in addition to Montanide); phase 1 study

poly-ICLC
patients showing induction of CD4+ and CD8+ T cell, as well as antibody responses to the peptide: > 90%
